The values below come from US9175077B2, “Nucleic acids encoding biologically active polypeptides derived from a novel early stage pregnancy factor designated maternin (MA)” (NOBEL BIOSCIENCES LLC, priority 1999, dated 2015).

One test deals with HIV-1. The following applies: controls at similar, equimolar or higher concentrations. On the procedure: Virus (MOI of 0.001) was added to 10^6 cells in RPMI-1640 with 10% FCS. One hour later the various polypeptides were added once. The cells cultured for 3 days with 5 ug PHA and 20 i.m. of II-2/ml at 37°, after which virus was estimated by determining p24 (HIV-1) or p27 (SIV) (Organon-Teknika).
The effect of native and synthetic MA on HIV-1 infection in vitro was evaluated using PHA and II-2 stimulated primary peripheral blood cells (PBMC), CD4+ T-cells enriched fractions from PBMC, and CD14+ macrophage enriched fractions. Infection was with HIV-1 IIIB (PBMC and CD4+ T-cells), HIV-1 Ba-L (macrophages), and two primary HIV-1 isolates not passaged in any cell line (PBMC).

Another test relates to fibrosarcoma 4TB166. In words: Confocal microscopy apoptosis. The format is cell-based, human. The following applies: 200 ng/ml; 24 hrs. The procedure:
(§1) More extensive studies of the effects of MA and with truncated synthetic forms of MA (MAS) on a wide range of other human tumor cells were carried out using three-dimensional confocal microscopy. Cells were cultured and then seeded onto gelatinized glass chamber slides and incubated 24 hrs with the various test materials. The slides were then fixed with formalin and treated serially with Triton X-100 (0.01%) for 10 min at 25°, 0.4 ug/ml fluorescein isothiocyanate (FITC)-labeled Phalloidin (Sigma Chem. Co.) at room temperature for 30 min to bind actin, washed with PBS and the DNA stained with Propidium iodide (PI) (0.5 ug·ml) (Sigma Chemical Co.), for 15 min. The stained slides were washed and mounted on slow fade (Molecular Probes, Inc., Eugene, Oreg.) and examined through a dual emission filter XF53 (Omega, Inc., Brattlesboro, Va.) by fluorescent microscopy. In some experiments only DNA staining was performed. In these instances Triton X-100 was not used. The slides were stained with PI and examined for cell morphology and chromatin degradation under 3D confocal microscopy.

For test [1], the system named is carcinoma of the kidney HTB46. Put plainly: Confocal microscopy apoptosis. The format is cell-based, human. The following applies: 200 ng/ml; 24 hrs. The procedure: as §1
For test [2], the system named is prostate carcinoma cell line PC3. Put plainly: Confocal microscopy apoptosis. The format is cell-based, human. The following applies: 200 ng/ml; 24 hrs. The procedure:
as §1

The test system of another test is Ewing's sarcoma. In words: Confocal microscopy apoptosis. The format is cell-based, human. The following applies: 200 ng/ml; 24 hrs. The procedure: as §1
In a further test the test system is carcinoma of the colon. In words: Confocal microscopy apoptosis. The format is cell-based, human. The following applies: 200 ng/ml; 24 hrs. On the procedure: as §1
For test [3], the system named is leukemia and lymphoma cell lines: HUT78, DAVDI, HG, SULTAN, T-cell lymphoma. In words: Confocal microscopy apoptosis. The format is cell-based, human. The following applies: 200 ng/ml; 24 hrs. The procedure:
as §1

Test [4] has as its system prostate carcinoma cell line PC4. Put plainly: Confocal microscopy apoptosis. The format is cell-based, human. The following applies: 200 ng/ml; 24 hrs. The procedure: as §1
Another test concerns melanoma HTB67. Put plainly: Confocal microscopy apoptosis. The following applies: 200 ng/ml; 24 hrs. The format is cell-based, human. On the procedure: as §1
Another test concerns gliobastoma HTB16. Put plainly: Confocal microscopy apoptosis. The format is cell-based, human. The following applies: 200 ng/ml; 24 hrs. On the procedure:
as §1

For test [5], the system named is carcinoma of the lung HTB184. In words: Confocal microscopy apoptosis. The format is cell-based, human. The following applies: 200 ng/ml; 24 hrs. On the procedure:
as §1

For test [6], the system named is carcinoma of the breast HTB124. In words: Confocal microscopy apoptosis. The format is cell-based, human. The following applies: 200 ng/ml; 24 hrs. The procedure:
as §1

The subject of test [7] is carcinoma of the pancreas CRL 1682. Put plainly: Confocal microscopy apoptosis. The format is cell-based, human. The following applies: 200 ng/ml; 24 hrs. On the procedure:
as §1

For the next test, the system named is KS Y-1 cells. Put plainly: Confocal microscopy apoptosis. The format is cell-based, human. The following applies: 200 ng/ml; 24 hrs. The procedure: as §1
In test [8] the test system is human carcinoma and sarcoma cells (PC3, KS Y-1). In words: Xenotransplanted human tumors in immunodeficient mice. The format is in vivo. The following applies: controls at equivalent and higher molar concentrations. The procedure:
In the first set of experiments, MA was tested against tumors formed by xenotransplantation of various human carcinoma and sarcoma cells in immunodeficient mice. […] […] Three different synthetic forms of MA were used: full length (MAS3) and the previously described MAS1 and MAS2 (Panel C).

Test [9] in a line: Lethally irradiated rats and mice. The following applies: treated at time of radiation, 3×/week for 4 weeks. On the procedure:
In order to determine in vivo relevance of the prohematopoietic effects of MA treated rats and mice under several conditions of bone marrow suppression. First, the effects of native MA and pMA and of the synthetic 15-mer MAS1 were treated for their capacity to reduce or prevent the effects of lethal doses of gamma irradiation. […] MA, pMA, MAS1, and various control polypeptides were given 48 and 24 hrs before, during, or 24 hrs after radiation. The animals treated prior to radiation received either 100 ng vs. 1 ug (rats) or 50 ng vs. 500 ng (mice) as 2 subcutaneous injections.
It is not yet possible to determine the precise molar dose of pMA because of less certainty on its full-length sequence.
To ascertain that the MA effect did promote hematopoiesis in these animals we examined the bone marrow for cellularity and colony formation and determined peripheral blood counts.

For test [10], the system named is human primitive hematopoietic stem cells. In words: Long term cultures (LTC-IC, stroma-free) of CD34+, CD38− cells from human BMMC. The format is cell-based. The procedure: In the human system, a long-term culture-initiating assay (LTC-IC) can be used to detect cells that can generate myeloid clonogenic cells (CFC/colony forming cells) in long-term cultures for a minimum of 5 weeks. Bone marrow stromal was produced by culturing 107 fresh BM-MNC in a T25 flash for at least 2 weeks in 5 mL stromal medium; 12.5% horse [HS] and 12.5% fetal calf serum [FCS]; both from hyclone [Logan, Utah], Iscove's modified Dulbecco's medium [IMDM, GIBCO-BRL], 2-mercaptoethanol [Sigma, st. Louis, Mo.], 10^−6 mol/L hydrocortisone [Sigma] and penicillin/streptomycine.
One or 2 days before co-cultures, bone marrow stroma was irradiated with 15Gy and plated at 7×10^3/cm^2 in 24-well plates to form pre-established stromal layers for the long-term cultures. Limiting dilution was 1 to 1000 CD34+ bone marrow/cord blood cells and equivalent aliquots, i.e., limiting dilutions of the cells grown in long-term cultures stroma-free cultures after 2 to 20 weeks were seeded on top of the irradiated bone marrow stroma in culture medium containing IMDM, 12.5% HS, 12.5% FCS, 2-mercptoethanol, and 10^−6 mon-hydrocortisone for 5 weeks LTC-IC assay period. Non-adherent cells were removed from the cultures, combined with the corresponding trypsinized adherent cells, washed and assayed for colony forming units (CFU-Cs) in methylcellulose medium containing 1.3% methylcellulose (Fluka Chemilka Biochemika, buck\hs, Switzerland), 30% FCS, EPO (3 U/ml), IL-3 (20 ng/ml), G-CSF (20 ng/ml), GM-CSF (20 ng/ml) and KL (c-kit, 50 ng/ml). These cultures were incubated at 37° C. and colonies were scored 2 to 3 weeks later. LTC-IC enumeration was based on the number of CFU-C scored in the limiting assays [LDA] and another technique.
Stroma-free long-term cultures were performed as follows. 2 to 10×10^3 CD34+/CD34^−CD38^− from bone marrow/CB/PBMC cells were cultured in quadrutriplicate flat bottomed 24 well plates in 1 ml to of IMDM supplemented with 10% FCS and the following cytokines: IL-3 (10 ng/ml), IL-6 (10 ng/ml), KL [c-kit 50 ng/ml, FL (50 ng/ml) and TPO (10 U/ml), which added, alone or in combination of two or more factors, to each series of microwells twice a week. The wells were grown at 37° C. and share a number of features with in vivo murine long-term repopulating cells. These include assay for cobblestone areas colony forming cells (CAFC), high proliferative potentials colony-forming cells (HPP-CFC), CFU-GEMM, CFU-B1 (blast colony forming units).

The nature of another test: Acutely bled rats. The format is in vivo, Sprague-Dawley rats. The following applies: i.p. 24 and 48 hrs after 35-40% blood loss. An excerpt: To delineate the effects of MA on hematopoiesis in the absence of any external bone marrow suppression, blood (35-40% of total blood volume) was removed from five Sprague-Dawley rats by intracardiac puncture. […] Each panel illustrates the mean values for the three animals treated with MAS1. Thus, MA and related derivatives have potent pro-hematopoietic effects.

Test [11] can be described thus: Lethal dose taxol in Sprague-Dawley rats. The format is in vivo. The procedure: Sprague-Dawley rats were given taxol in large lethal doses, 4.5 mg in one I.P. inoculation. […] Bone marrow suppression can also be a side effect of the clinical use of taxol.^179 As in the radiation experiments, either MA, pMA, MAS1, or various polypeptide controls were given subcutaneously only in two doses 24 and 48 hrs before taxol treatment or were given 3×/week for 4 weeks. […]

“Also recorded” adds a separate entry of the source.

With “NYRDVRFESIRLPGCPRGVNPVVSYAVALS (listed as Homo sapiens) [MAS2]”, the “inhibition of HIV replication (qualitative)” value in the test with HIV-1 is “full-inhibition”. The induction of apoptosis result (with fibrosarcoma 4TB166; in test [1]; in [2]; with Ewing's sarcoma; in the test on carcinoma of the colon; in test [3]) was “induced apoptosis” in each case. Also, the induction of apoptosis result (in [4]; in the test on melanoma HTB67; in the test on gliobastoma HTB16; in test [5]; in [6]; in test [7]) was “induced apoptosis” each time. Also, the induction of apoptosis result in the test on KS Y-1 cells is recorded as “induced apoptosis”. Further, the “effect on xenotransplanted tumor (qualitative)” value in [8] is “hypocellularity and degenerative changes of the cells; also recorded: undergoing apoptosis”.
As to “VRFESIRLPGCPRGV (listed as Homo sapiens) [MAS1]”, the survival amounted to 100% in test [9] (higher dose, over 100 days) and 80% in [9] (lowest doses). Further, the “Rx MAS1: % of CD1” value in test [10] was 35%. Further, the “Rx MAS1: % of CD68” value in [10] is on record as 27%. For the same sequence, the induction of apoptosis result (in the test on fibrosarcoma 4TB166; in test [1]; in test [2]; in the test with Ewing's sarcoma; with carcinoma of the colon; in [3]) was “induced apoptosis” throughout. Moreover, the induction of apoptosis entry (in [4]; in the test with melanoma HTB67; with gliobastoma HTB16; in [5]; in test [6]; in test [7]) was “induced apoptosis” throughout. The induction of apoptosis result with KS Y-1 cells is “induced apoptosis”. Further, the “recovery of peripheral blood cells” value in “Acutely bled rats” was “prompt recovery”. Also, in test [11] (low dose, two doses 24 and 48 hrs before taxol), the “survival of pretreated animals” value was “Sixty-percent”. For the same sequence, the “survival maintained to day 80” value in [11] (therapy maintained 28 days, high dose (1000 ng)) is roughly 80%; in test [11] (therapy maintained 28 days, low dose (100 ng)), “about 60%”. Besides, the “survival on day 5” value in test [11] (therapy maintained 28 days, low or high dose) is reported as 100%.
